# Test results published in article doi:10.1101/2021.10.07.463234v2 (biorxiv, 2021).
# Counter-ions that a name gives are not always drawn.
# Target: SARS-CoV-2 Mac1 (Severe acute respiratory syndrome coronavirus 2, UniProt P0DTD1)
# Assay: biochemical
# Details: 100 µM; inhibitor
row,SMILES,%inhibition [%]
1,COc1ccc(C[C@@H](C)NC[C@H](O)c2ccc(O)c(NC=O)c2)cc1 (racemic) [Formoterol Hemifumarate],0
2,Nc1ccncc1 [4-Aminopyridine],5.817
3,COc1cc(O)c(C(=O)Nc2nc(C(=O)NCCN(C(C)C)C(C)C)cs2)cc1OC [Acotiamide hydrochloride],0
4,COc1cc(O)c(C(=O)Nc2nc(C(=O)NCCN(C(C)C)C(C)C)cs2)cc1OC [Acotiamide],14.33
5,CN(C)C/C=C/C(=O)Nc1cc2c(Nc3ccc(F)c(Cl)c3)ncnc2cc1O[C@H]1CCOC1 [Afatinib (BIBW2992) Dimaleate],21
6,CN(C)C/C=C/C(=O)Nc1cc2c(Nc3ccc(F)c(Cl)c3)ncnc2cc1O[C@H]1CCOC1 [Afatinib (BIBW2992)],0.3349

# Same assay, conditions: read-out: %inhibition
row,SMILES,inhibition at 100 µM [%]
1,COCC(=O)Nc1c(I)c(C(=O)NCC(O)CO)c(I)c(C(=O)N(C)CC(O)CO)c1I (mixture of isomers) [Iopromide],0
2,CCC(C)n1ncn(-c2ccc(N3CCN(c4ccc(OC[C@H]5CO[C@](Cn6cncn6)(c6ccc(Cl)cc6Cl)O5)cc4)CC3)cc2)c1=O (mixture of isomers) [Itraconazole],1.14
3,OC[C@H]1O[C@@H](O[C@@H]2[C@@H](CO)OC(O)(CO)[C@H]2O)[C@H](O)[C@@H](O)[C@H]1O (mixture of isomers) [Lactulose],5.37
4,CCCCC(C)(O)C/C=C/[C@H]1[C@H](O)CC(=O)[C@@H]1CCCCCCC(=O)OC (mixture of isomers) [Misoprostol],0
5,CC(C)(C)NCC(O)COc1cccc2c1C[C@H](O)[C@H](O)C2 (mixture of isomers) [Nadolol],21.5
6,"NCC(O)c1ccc(O)cc1 (racemic) [(+,-)-Octopamine HCl]",0
7,CN1C[C@@H]2c3ccccc3Oc3ccc(Cl)cc3[C@H]2C1 (racemic) [Asenapine maleate],0
8,COC(=O)C1=C(C)NC(C)=C(C(=O)O[C@@H]2CCCN(Cc3ccccc3)C2)[C@@H]1c1cccc([N+](=O)[O-])c1 (racemic) [Benidipine HCl],4.77
9,C[N+](C)(C)CC(O)CC(=O)[O-] (racemic) [DL-Carnitine HCl],0
10,NC(=O)CCC(N)C(=O)O (racemic) [DL-Glutamine],0
11,CC(C)(CO)C(O)C(=O)NCCCO (racemic) [DL-Panthenol],0
12,CC(C)n1c(/C=C/[C@@H](O)C[C@@H](O)CC(=O)O)c(-c2ccc(F)cc2)c2ccccc21 (racemic) [Fluvastatin Sodium],30
13,CC(=O)N1CCN(c2ccc(OC[C@@H]3CO[C@@](Cn4ccnc4)(c4ccc(Cl)cc4Cl)O3)cc2)CC1 (racemic) [Ketoconazole],19.1
14,CCN(CC)C(=O)[C@]1(c2ccccc2)C[C@@H]1CN (racemic) [Milnacipran HCl],0
15,CCOc1ccccc1O[C@H](c1ccccc1)[C@H]1CNCCO1 (racemic) [Reboxetine mesylate],0
16,C[C@@H](NCCc1ccc(O)cc1)[C@@H](O)c1ccc(O)cc1 (racemic) [Ritodrine HCl],33.2
17,CC(C)N1CCN(c2ccc(OC[C@H]3CO[C@](Cn4cncn4)(c4ccc(Cl)cc4Cl)O3)cc2)CC1 (racemic) [Terconazole],4.88
18,O=C(O)CCCC[C@@H]1CCSS1 (racemic) [Thioctic acid],22.2
19,Cc1ccc(S(=O)(=O)NC(=O)NN2CC3CCC[C@@H]3C2)cc1 (stereo in doubt) [Gliclazide],9.52
20,CC(=C(CCOC(=O)C(C)C)SSC(CCOC(=O)C(C)C)=C(C)N(C=O)Cc1cnc(C)nc1N)N(C=O)Cc1cnc(C)nc1N (stereo in doubt) [Sulbutiamine],12.8
21,"COc1ccc(C(=O)c2ccccc2O)c(O)c1 [2,2′-Dihydroxy-4-methoxybenzophenone]",8.7
22,"CC1(C)OC(=O)NC1=O [5,5-Dimethyloxazolidine-2,4-dione]",0.163
23,NCC(=O)CCC(=O)O [5-Aminolevulinic acid HCl],7.12
24,N[C@@H](Cc1c[nH]c2ccc(O)cc12)C(=O)O [5-hydroxytryptophan (5-HTP)],0

row,SMILES,inhibition at 100 µM [%]
1,S=c1nc[nH]c2nc[nH]c12 [6-Mercaptopurine (6-MP) Monohydrate],4.11
2,Nc1c2ccccc2nc2ccccc12 [9-Aminoacridine],0.915
3,CC1(C)[C@@H]2CC[C@@]1(C)C(=O)C2 [(+)-Camphor],0
4,C/C=C1\[C@H]2C=C(C)C[C@]1(N)c1ccc(=O)[nH]c1C2 [(-)-Huperzine A (HupA)],0
5,CC(C)[C@@H]1CC[C@@H](C)C[C@H]1O [(-)-Menthol],0
6,CC(C)NC[C@@H](O)COc1ccc(CC(N)=O)cc1 [(R)-(+)-Atenolol HCl],9.19
7,NC[C@H](CC(=O)O)c1ccc(Cl)cc1 [(R)-baclofen],0
8,C[C@H](Oc1cc(-c2cnn(C3CCNCC3)c2)cnc1N)c1c(Cl)ccc(F)c1Cl [(S)-crizotinib],4.9
9,NC(=O)c1ncn([C@@H]2O[C@H](CO)[C@@H](O)[C@H]2O)c1N [AICAR (Acadesine)],14.6
10,Nc1nc(NC2CC2)c2ncn([C@H]3C=C[C@@H](CO)C3)c2n1 [Abacavir sulfate],0
11,CCN1CCN(Cc2ccc(Nc3ncc(F)c(-c4cc(F)c5nc(C)n(C(C)C)c5c4)n3)nc2)CC1 [Abemaciclib],4.16
12,CC#CC(=O)N1CCC[C@H]1c1nc(-c2ccc(C(=O)Nc3ccccn3)cc2)c2c(N)nccn12 [Acalabrutinib (ACP-196)],9.75
13,CC(=O)NCCCS(=O)(=O)O [Acamprosate Calcium],0
14,C[C@H]1O[C@H](O[C@H]2[C@H](O)[C@@H](O)[C@@H](O[C@H]3[C@H](O)[C@@H](O)C(O)O[C@@H]3CO)O[C@@H]2CO)[C@H](O)[C@@H](O)[C@@H]1N[C@H]1C=C(CO)[C@@H](O)[C@H](O)[C@H]1O (some centres unmarked) [Acarbose],16
15,CCCC(=O)Nc1ccc(OCC(O)CNC(C)C)c(C(C)=O)c1 (centres unmarked) [Acebutolol HCl],0
16,O=C(O)COC(=O)Cc1ccccc1Nc1c(Cl)cccc1Cl [Aceclofenac],0
17,CC(=O)N[C@@H](CCC(N)=O)C(=O)O [Aceglutamide],0
18,COc1ccc2c(c1)c(CC(=O)OCC(=O)O)c(C)n2C(=O)c1ccc(Cl)cc1 [Acemetacin],8.64
19,CC(=O)Nc1ccccc1 [Acetanilide],30.4
20,CC(=O)c1ccc(S(=O)(=O)NC(=O)NC2CCCCC2)cc1 [Acetohexamide],17.8
21,CC(=O)NO [Acetohydroxamic acid],0
22,CC(=O)OCC[N+](C)(C)C [Acetylcholine iodide],0
23,CC(=O)N[C@@H](CS)C(=O)O [Acetylcysteine],0
24,CC(=O)NC(CC(C)C)C(=O)O (centres unmarked) [Acetylleucine],1.78

row,SMILES,inhibition at 100 µM [%]
1,Nc1nc2c(ncn2COCCO)c(=O)[nH]1 [Aciclovir],19.8
2,Cc1cnc(C(=O)O)c[n+]1[O-] [Acipimox],14
3,COc1cc(C)c(/C=C/C(C)=C/C=C/C(C)=C/C(=O)O)c(C)c1C [Acitretin],7.72
4,O=C(O[C@H]1C[N+]2(CCCOc3ccccc3)CCC1CC2)C(O)(c1cccs1)c1cccs1 [Aclidinium Bromide],0
5,CC(=O)Nc1ccc(CC(=O)O)cc1 [Actarit],2.1
6,COc1ccc(-c2ccc3cc(C(=O)O)ccc3c2)cc1[C@]12C[C@H]3C[C@H](C[C@H](C3)C1)C2 [Adapalene],27.7
7,CC(C)(C)C(=O)OCOP(=O)(COCCn1cnc2c(N)ncnc21)OCOC(=O)C(C)(C)C [Adefovir Dipivoxil],37.1
8,Nc1[nH]cnc2ncnc1-2 [Adenine HCl],9.72
9,Nc1ncnc2nc[nH]c12 [Adenine sulfate],4.13
10,Nc1ncnc2c1ncn2[C@@H]1O[C@H](CO)[C@@H](O)[C@H]1O [Adenosine],0
11,CCN(CC)CCOC(=O)C(c1ccccc1)c1ccccc1 [Adiphenine HCl],6.54
12,CNCC(=O)c1ccc(O)c(O)c1 [Adrenalone HCl],6.88
13,Cc1ccccc1-n1c(CF)nc2ccc(N)cc2c1=O [Afloqualone],0
14,Cn1ncc(Cl)c1-c1cc(C(=O)N[C@H](CN)Cc2cccc(F)c2)sc1Cl [Afuresertib (GSK2110183)],0
15,COc1ccc2cccc(CCNC(C)=O)c2c1 [Agomelatine],36.5
16,CC[C@H]1[C@@H]2C[C@H]3[C@@H]4N(C)c5ccccc5[C@]45C[C@@H]([C@H]2[C@H]5O)N3[C@@H]1O [Ajmaline],18.1
17,CCNC(=O)[C@@H]1CCCN1C(=O)[C@H](CCCN=C(N)N)NC(=O)[C@H](CC(C)C)NC(=O)[C@@H](C)NC(=O)[C@H](Cc1ccc(O)cc1)NC(=O)[C@H](CO)NC(=O)[C@H](Cc1c[nH]c2ccccc12)NC(=O)[C@H](Cc1cnc[nH]1)NC(=O)[C@@H]1CCC(=O)N1 [Alarelin Acetate],0.14
18,CCC[S+]([O-])c1ccc2[nH]c(NC(=O)OC)nc2c1 (centres unmarked) [Albendazole Oxide],28
19,CCCSc1ccc2[nH]c(NC(=O)OC)nc2c1 [Albendazole],0
20,CN1CCC(=C2c3ccccc3CCn3c(C=O)cnc32)CC1 [Alcaftadine],0
21,CCc1cc2c(cc1N1CCC(N3CCOCC3)CC1)C(C)(C)c1[nH]c3cc(C#N)ccc3c1C2=O [Alectinib hydrochloride],9.69
22,NCCCC(O)(P(=O)(O)O)P(=O)(O)O [Alendronate sodium trihydrate],1.69
23,C=C1/C(=C\C=C2/CCC[C@]3(C)[C@@H]([C@H](C)CCCC(C)C)CC[C@@H]23)C[C@@H](O)C[C@@H]1O [Alfacalcidol],0
